Data as given in PMC8298602, “14-3-3-protein regulates Nedd4-2 by modulating interactions between HECT and WW domains” (Communications Biology, 2021).

Columns and labels:
Nedd4-2^186–975 = assay: auto-ubiquitination (Ub chain formation) assay, immunoblot; type: biochemical, human; conditions: for Difference (no 14-3-3 minus with 14-3-3): normalized means; for effect on auto-ubiquitination of Nedd4-2^186–975 (in words): Nedd4-2^186–975 with 14-3-3, 1:2 molar ratio, 30 °C
Description: For in vitro ubiquitination assays, 5 µg of human Ub, 50 ng of E1 (mouse Uba1), 200 ng of E2 (mouse Ube2d2) and 500 ng of E3 (phosphorylated Nedd4-2^186–975) were incubated in 30 µl of the reaction mixture in a buffer containing 50 mM Tris pH 7.5, 2 mM ATP, 5 mM MgCl2 and 2 mM DTT and incubated for 5, 10 and 15 min at 30 °C. The reactions were stopped by adding 5 × SDS-PAGE loading buffer (250 mM Tris pH 6.8, 50% glycerol, 500 mM DTT and 10% SDS) and incubating at 95 °C for 3 minutes to denaturate the samples. For reactions with 14-3-3η, Nedd4-2^186–975 was mixed with 14-3-3η in a 1:2 molar ratio and incubated for 30 minutes on ice before starting the reaction. In addition, 20 µl of reaction was separated by conventional SDS-PAGE on a 10% acrylamide gel and electro-blotted against a PVDF membrane in 20 mM Tris pH 7.5, 154 mM glycin and 10% methanol buffer overnight at 4 °C. Rabbit anti-Ub polyclonal antibody (Enzo) and anti-rabbit IgG, HRP-linked Antibody (Cell Signaling Technology) were used to visualize the transferred polyubiquitin chains. Chemiluminescence was induced by ECL and detected using Fusion Solo S (Vilber). The detected bands of E3-Ub were quantitated using the Image Lab software (Bio-Rad).
(§1) Results from the FP assay (Fig. 4) and immunoblot (Supplementary Fig. S1) are represented as means ± SD from three replicates as indicated in the figure legend. Statistical analysis for the data from immunoblot were performed using Graph-Pad Prism 8.4. Student’s t-test was used for comparison of relative changes of samples with and without 14-3-3η at selected timepoints (ns, non-significant P > 0.05; *, P < 0.05).
Supplementary Fig. S1. 14-3-3 slows down the auto-ubiquitination of Nedd4- 2186-975. a Purity and integrity of the samples used in the Ub chain formation assay. The samples were resolved by 10% Tris/Glycine SDS-PAGE and stained with Coomassie G-250. b Ubiquitin (Ub) chain formation assay with and without 14-3-3ε and the representative immunoblot of Ub. Black rectangles denote the borders of the sample zones that were quantified. The presence of ubiquitinated Nedd4-2 in the quantified zones was confirmed by LC-MS analysis. c Relative abundances of ubiquitinated Nedd4-2186-975 with and without 14-3-3η based on the immunoblot of Ub. Error bars represent the standard deviation of three independent experiments. Results show the data distribution. Asterisks represent significant differences according to unpaired Student’s t-tests comparing relative change between samples without and with 14-3-3ε at selected timepoints (ns, non-significant P > 0.05; *, P < 0.05).
(1 picture or pasted object on this page, not shown here)

[1] = tested on: all human 14-3-3 protein isoforms; assay: fluorescence polarization (FP), all seven 14-3-3 isoforms (results in words); type: binding; conditions: 50 nM FITC-labelled peptide, 14-3-3 isoforms from 80 μM
Description: Fig. 4 14-3-3 isoform binding specificity of Nedd4-2 phosphomotifs. Binding of FITC-labeled phosphopeptides with 14-3-3 binding motifs of Nedd4-2 (pSer^342, pThr^367 or pSer^448) to all human 14-3-3 isoforms was characterized by FP titrations. The binding affinities of these peptides were determined by fitting FP data to a one-site binding model. The corresponding sequences of these peptides are shown at the top. Background polarization was subtracted from all values. Results are expressed as mean ± SD (n = 3). Error bars are not visible if they are smaller than the size of the symbol.
The FP assay was performed using a CLARIOstar microplate reader (BMG Labtech, […]) on 384-well black low-volume flat-bottom plates (Corning, New York, USA) in a buffer containing 10 mM HEPES (pH 7.4), 150 mM NaCl, 0.1% (v/v) Tween 20 and 0.1% (w/v) BSA. […] The excitation and emission wavelengths were 482 nm and 530 nm, respectively. The KD values were determined as the mean of three independent measurements using GraphPad Prism version 8.0.1 for Windows, GraphPad Software, La Jolla California USA, www.graphpad.com.
as §1

“14-3-3η: 14-3-3 protein eta isoform, stable dimer, known Nedd4-2 binding partner” was tested, and the “Difference (no 14-3-3 minus with 14-3-3)” value (Nedd4-2^186–975; 5 min) was 0.1757, the “relative abundance of ubiquitinated Nedd4-2^186–975” value (“relative abundance” for short) (Nedd4-2^186–975; 5 min, with 14-3-3, mean of n = 3, normalized (mean without 14-3-3 = 1), listed as 14-3-3) was 0.8243 and the “relative abundance” value (Nedd4-2^186–975; 5 min, with 14-3-3, mean of n = 3, normalized (mean without 14-3-3 = 1), listed as 1433) was 0.8243. The “abundance of ubiquitinated Nedd4-2^186–975” value (Nedd4-2^186–975; 5 min, with 14-3-3, mean of n = 3, not normalized) was 1.509, the “relative abundance” value (Nedd4-2^186–975; 5 min, with 14-3-3, replicate 1, normalized (mean without 14-3-3 = 1)) was 0.8139 and the “abundance of ubiquitinated Nedd4-2^186–975” value (Nedd4-2^186–975; 5 min, with 14-3-3, replicate 1, not normalized) was 1.49. The “relative abundance” value (Nedd4-2^186–975; 5 min, with 14-3-3, replicate 2, normalized (mean without 14-3-3 = 1)) was 1.075, the “abundance of ubiquitinated Nedd4-2^186–975” value (Nedd4-2^186–975; 5 min, with 14-3-3, replicate 2, not normalized) was 1.967 and the “relative abundance” value (Nedd4-2^186–975; 5 min, with 14-3-3, replicate 3, normalized (mean without 14-3-3 = 1)) was 0.5843. For the same substance, the “abundance of ubiquitinated Nedd4-2^186–975” value (Nedd4-2^186–975; 5 min, with 14-3-3, replicate 3, not normalized) was 1.069, the “Difference (no 14-3-3 minus with 14-3-3)” value (Nedd4-2^186–975; 10 min) was 0.2602 and the “relative abundance” value (Nedd4-2^186–975; 10 min, with 14-3-3, mean of n = 3, normalized (mean without 14-3-3 = 1), listed as 14-3-3) was 0.7398. For the same substance, the “relative abundance” value (Nedd4-2^186–975; 10 min, with 14-3-3, mean of n = 3, normalized (mean without 14-3-3 = 1), listed as 1433) was 0.7398, the “abundance of ubiquitinated Nedd4-2^186–975” value (Nedd4-2^186–975; 10 min, with 14-3-3, mean of n = 3, not normalized) was 2.393 and the “relative abundance” value (Nedd4-2^186–975; 10 min, with 14-3-3, replicate 1, normalized (mean without 14-3-3 = 1)) was 0.713. The “abundance of ubiquitinated Nedd4-2^186–975” value (Nedd4-2^186–975; 10 min, with 14-3-3, replicate 1, not normalized) was 2.306, the “relative abundance” value (Nedd4-2^186–975; 10 min, with 14-3-3, replicate 2, normalized (mean without 14-3-3 = 1)) was 0.8702 and the “abundance of ubiquitinated Nedd4-2^186–975” value (Nedd4-2^186–975; 10 min, with 14-3-3, replicate 2, not normalized) was 2.814. The “relative abundance” value (Nedd4-2^186–975; 10 min, with 14-3-3, replicate 3, normalized (mean without 14-3-3 = 1)) was 0.6363, the “abundance of ubiquitinated Nedd4-2^186–975” value (Nedd4-2^186–975; 10 min, with 14-3-3, replicate 3, not normalized) was 2.058 and the “Difference (no 14-3-3 minus with 14-3-3)” value (Nedd4-2^186–975; 15 min) was 0.2943. For the same substance, the “relative abundance” value (Nedd4-2^186–975; 15 min, with 14-3-3, mean of n = 3, normalized (mean without 14-3-3 = 1), listed as 14-3-3) was 0.7057, the “relative abundance” value (Nedd4-2^186–975; 15 min, with 14-3-3, mean of n = 3, normalized (mean without 14-3-3 = 1), listed as 1433) was 0.7057 and the “abundance of ubiquitinated Nedd4-2^186–975” value (Nedd4-2^186–975; 15 min, with 14-3-3, mean of n = 3, not normalized) was 3.153. For the same substance, the “relative abundance” value (Nedd4-2^186–975; 15 min, with 14-3-3, replicate 1, normalized (mean without 14-3-3 = 1)) was 0.7206, the “abundance of ubiquitinated Nedd4-2^186–975” value (Nedd4-2^186–975; 15 min, with 14-3-3, replicate 1, not normalized) was 3.22 and the “relative abundance” value (Nedd4-2^186–975; 15 min, with 14-3-3, replicate 2, normalized (mean without 14-3-3 = 1)) was 0.776. The “abundance of ubiquitinated Nedd4-2^186–975” value (Nedd4-2^186–975; 15 min, with 14-3-3, replicate 2, not normalized) was 3.467, the “relative abundance” value (Nedd4-2^186–975; 15 min, with 14-3-3, replicate 3, normalized (mean without 14-3-3 = 1)) was 0.6205 and the “abundance of ubiquitinated Nedd4-2^186–975” value (Nedd4-2^186–975; 15 min, with 14-3-3, replicate 3, not normalized) was 2.772. For the same substance, the “effect on auto-ubiquitination of Nedd4-2^186–975 (in words)” value (Nedd4-2^186–975) was “reduced” and the “effect on auto-ubiquitination of Nedd4-2^186–975 (in words)” value (Nedd4-2^186–975; listed as 14-3-3) was “slows down”.

FITC-ARSSpTVTGGE [pep-T367] was tested, and the “binding to 14-3-3 isoforms (in words)” value [1] was “very weak, to all 14-3-3 isoforms except ε and σ”.

FITC-LRSCpSVTDAV [pep-S448] was tested, and the “binding to 14-3-3 isoforms (in words)” value [1] was “binds to all 14-3-3 isoforms in the low micromolar range”.

For FITC-PRSLpSSPTVT [pep-S342], the “binding to 14-3-3 isoforms (in words)” value [1] was “measurable binding affinity only to 14-3-3σ”.
